In the assay the target is human Autotaxin protein (Homo sapiens, UniProt Q13822). The assay can be described thus: Evaluation of inhibitory activity against human Autotaxin protein (18:1 LysoPC substrate, choline assay kit, absorbance 570 nm). The assay is classed as biochemical. The settings on record: compound at 500 nM, 2 hours at 37° C. The procedure:
The solution of each synthesized compound (80 uM, 100% dimethyl sulfoxide) was sequentially diluted 5 times with dimethyl sulfoxide to prepare 6 concentrations. Each concentration of compound was diluted two-fold with 1× test buffer (50 mM Tris-Cl (pH 8.0), 5 mM KCl, 1 mM CaCl2), 1 mM MgCl2, 140 mM NaCl, deionized water, 1 mg/mL BSA), and 1 uL (1.25% dimethyl sulfoxide) of this diluted mixture was dispensed into each well of a 96 well clear round bottom plate. 9 uL of 1× test buffer were added to each well, followed by the addition of 20 uL of 240 nM human Autotaxin protein (buffer: 50 mM Tris-HCl, pH 8.0, with 150 mM sodium chloride and 20% glycerol). 10 uL of sonicated 360 uM 18:1 LysoPC (diluted with 1× test buffer) were added to each well. The reaction was performed for 2 hours in a shaking incubator at 37° C., and a secondary reaction mixture (choline assay kit, KA1662) (65 uL of 1× test buffer: 1 uL of choline oxidase: 1 uL of dye probe) was prepared. 60 uL of the secondary reaction mixture were added to the reaction plate and reacted on a shaker for 30 minutes. Using a SpectraMax iD3 microplate reader, the absorbance was measured at a wavelength of 570 nm. The percentage of inhibition activity (% inhibition) was calculated by the Formula: (1−Absorbancetestgroup/Absorbancecontrol group)×100.

With `Fc1cc2c(cc1F)CC(Nc1ncc(-c3nnc(N4CCC(c5cnn[nH]5)CC4)o3)cn1)C2` [Example 5, 5-(5-(4-(1H-1,2,3-Triazol-5-yl)piperidin-1-yl)-1,3,4-oxadiazol-2-yl)-N-(5,6-difluoro-2,3-dihydro-1H-inden-2-yl)pyrimidin-2-amine], 0.5 µM produced 100% inhibition.
Same read-out and setting: as for `Clc1cc(Cl)cc(CNc2ncc(-c3nnc(N4CCC(c5cnn[nH]5)CC4)o3)cn2)c1` [Example 15, 5-(5-(4-(1H-1,2,3-Triazol-5-yl)piperidin-1-yl)-1,3,4-oxadiazol-2-yl)-N-(3,5-dichlorobenzyl)pyrimidin-2-amine], the figure is 100%.
Still for that read-out and setting: as for `c1ccc2c(c1)CC(Nc1ncc(CCCN3CCC(c4c[nH]nn4)CC3)cn1)C2` [Example 62, 5-(3-(4-(1H-1,2,3-triazol-4-yl)piperidin-1-yl)propyl)-N-(2,3-dihydro-1H-inden-2-yl)pyrimidin-2-amine], the figure is 70.2%.
Still for that read-out and setting: to `Cn1cc(C2CCN(c3nnc(-c4cnc(NC5Cc6cc(F)c(F)cc6C5)nc4)o3)CC2)nn1` [Example 34, N-(5,6-difluoro-2,3-dihydro-1H-inden-2-yl)-5-(5-(4-(1-methyl-1H-1,2,3-triazol-4-yl)piperidin-1-yl)-1,3,4-oxadiazol-2-yl)pyrimidin-2-amine] belongs 17.3%; to `Fc1ccc2c(c1)CC(Nc1ncc(-c3nnc(N4CCC(c5cnn[nH]5)CC4)o3)cn1)C2` (stereo not drawn) [Example 2, 5-(5-(4-(1H-1,2,3-Triazol-5-yl)piperidin-1-yl)-1,3,4-oxadiazol-2-yl)-N-(5-fluoro-2,3-dihydro-1H-inden-2-yl)pyrimidin-2-amine], 100%.
As for `Fc1ccc(CNc2ncc(C3CC(N4CCC(c5cnn[nH]5)CC4)=NO3)cn2)cc1F` (stereo not drawn) [Example 43, N-[(3,4-difluorophenyl)methyl]-5-[3-[4-(1H-triazol-5-yl)-1-piperidyl]-4,5-dihydroisoxazol-5-yl]pyrimidin-2-amine], the “inhibition (%) at 500 nM” value is listed as 4.6%.
As to `COC1(c2c[nH]nn2)CCN(c2nnc(-c3cnc(NC4Cc5cc(F)c(F)cc5C4)nc3)o2)CC1` [Example 70, N-(5,6-difluoro-2,3-dihydro-1H-inden-2-yl)-5-(5-(4-methoxy-4-(1H-1,2,3-triazol-4-yl)piperidin-1-yl)-1,3,4-oxadiazol-2-yl)pyrimidin-2-amine], the inhibition (commonly the percentage by which the read-out fell short of the control) at 0.5 µM worked out at 97.9%.
On the same count and under the same terms, as for `Clc1ccc(CNc2ncc(-c3nnc(N4CCC(c5cnn[nH]5)CC4)o3)cn2)cc1Cl` [Example 56, 5-(5-(4-(1H-1,2,3-triazol-5-yl)piperidin-1-yl)-1,3,4-oxadiazol-2-yl)-N-(3,4-dichlorobenzyl)pyrimidin-2-amine], the figure is 55.8%.
Same read-out and setting: to `Fc1cc2c(cc1F)CC(Nc1ncc(-c3nnc(N4CCC(F)(c5cnn[nH]5)CC4)o3)cn1)C2` [Example 71, N-(5,6-difluoro-2,3-dihydro-1H-inden-2-yl)-5-(5-(4-fluoro-4-(1H-1,2,3-triazol-5-yl)piperidin-1-yl)-1,3,4-oxadiazol-2-yl)pyrimidin-2-amine] belongs 98.6%; to `Fc1ccc2c(c1)CC(Nc1ncc(C3CC(N4CCC(c5cnn[nH]5)CC4)=NO3)cn1)C2` (stereo not drawn) [Example 39, 5-(3-(4-(1H-1,2,3-triazol-5-yl)piperidin-1-yl)-4,5-dihydroisoxazol-5-yl)-N-(5-fluoro-2,3-dihydro-1H-inden-2-yl)pyrimidin-2-amine], 97.2%.
In the case of `Fc1cc(F)cc(CNc2ncc(C3CC(N4CCC(c5cnn[nH]5)CC4)=NO3)cn2)c1` (stereo not drawn) [Example 41, N-[(3,5-difluorophenyl)methyl]-5-[3-[4-(1H-triazol-5-yl)-1-piperidyl]-4,5-dihydroisoxazol-5-yl]pyrimidin-2-amine], the “inhibition (%) at 500 nM” value amounted to 40.6%.
`O=C(O)CC1CCN(c2nnc(-c3cnc(NC4Cc5cc(F)c(F)cc5C4)nc3)o2)CC1` [Example 68, 2-(1-(5-(2-((5,6-Difluoro-2,3-dihydro-1H-inden-2-yl)amino)pyrimidin-5-yl)-1,3,4-oxadiazol-2-yl)piperidin-4-yl)acetic acid] yielded an inhibition at 0.5 µM of 87.1%.
Same read-out and setting: as for `c1ccc2c(c1)CC(Nc1ncc(-c3nnc(N4CCC(n5cncn5)CC4)o3)cn1)C2` [Example 9, 5-(5-(4-(1H-1,2,4-Triazol-1-yl)piperidin-1-yl)-1,3,4-oxadiazol-2-yl)-N-(2,3-dihydro-1H-inden-2-yl)pyrimidin-2-amine], the figure is 81%; as for `CC1CC(c2cnn[nH]2)CCN1c1nnc(-c2cnc(NC3Cc4cc(F)c(F)cc4C3)nc2)o1` (stereo not drawn) [Example 54, N-(5,6-difluoro-2,3-dihydro-1H-inden-2-yl)-5-(5-(2-methyl-4-(1H-1,2,3-triazol-5-yl)piperidin-1-yl)-1,3,4-oxadiazol-2-yl)pyrimidin-2-amine], 95.3%.
In the case of `Fc1cc2c(cc1F)CC(Nc1ncc(-c3nnc(N4CCC(c5nnco5)CC4)o3)cn1)C2` [Example 27, 5-(5-(4-(1,3,4-Oxadiazol-2-yl)piperidin-1-yl)-1,3,4-oxadiazol-2-yl)-N-(5,6-difluoro-2,3-dihydro-1H-inden-2-yl)pyrimidin-2-amine], at 0.5 µM the inhibition was 29%.
The same measure, in the same setting: as for `Fc1cc2c(cc1F)CC(Nc1ncc(-c3nnc(N4CCC(n5cnnn5)CC4)o3)cn1)C2` [Example 28, 5-(5-(4-(1H-Tetrazol-1-yl)piperidin-1-yl)-1,3,4-oxadiazol-2-yl)-N-(5,6-difluoro-2,3-dihydro-1H-inden-2-yl)pyrimidin-2-amine], the figure is 52.5%.
Still for that read-out and setting: to `Fc1ccc2c(c1)CC(Nc1ncc(C3CC(N4CCC(c5nnc(C(F)(F)F)o5)CC4)=NO3)cn1)C2` (stereo not drawn) [Example 53, N-(5-fluoro-2,3-dihydro-1H-inden-2-yl)-5-(3-(4-(5-(trifluoromethyl)-1,3,4-oxadiazol-2-yl)piperidin-1-yl)-4,5-dihydroisoxazol-5-yl)pyrimidin-2-amine] belongs 10.2%.
On the same count and under the same terms, as for `O=C(NO)C1CCN(c2nnc(-c3cnc(NC4Cc5cc(F)c(F)cc5C4)nc3)o2)CC1` [Example 69, 1-(5-(2-((5,6-Difluoro-2,3-dihydro-1H-inden-2-yl)amino)pyrimidin-5-yl)-1,3,4-oxadiazol-2-yl)-N-hydroxypiperidine-4-carboxamide], the figure is 66.8%; as for `OC1CN(C2CCN(c3nnc(-c4cnc(NC5Cc6cc(F)c(F)cc6C5)nc4)o3)CC2)C1` [Example 64, 1-(1-(5-(2-((5,6-Difluoro-2,3-dihydro-1H-inden-2-yl)amino)pyrimidin-5-yl)-1,3,4-oxadiazol-2-yl)piperidin-4-yl)azetidin-3-ol], 28.1%.
Turning to `Clc1cc(Cl)cc(CNc2ncc(C3CC(N4CCC(c5cnn[nH]5)CC4)=NO3)cn2)c1` (stereo not drawn) [Example 44, 5-(3-(4-(1H-1,2,3-triazol-5-yl)piperidin-1-yl)-4,5-dihydroisoxazol-5-yl)-N-(3,5-dichlorobenzyl)pyrimidin-2-amine], the inhibition at 0.5 µM was 71.3%.
Same read-out and setting: to `O=C(CCCc1nnc(NC2Cc3ccccc3C2)s1)N1CCC(c2cnn[nH]2)CC1` [Example 19, 1-(4-(1H-1,2,3-Triazol-5-yl)piperidin-1-yl)-4-(5-((2,3-dihydro-1H-inden-2-yl)amino)-1,3,4-thiadiazol-2-yl)butan-1-one] belongs 43%; to `c1cnc2c(n1)CC(Nc1ncc(-c3nnc(N4CCC(c5cnn[nH]5)CC4)o3)cn1)C2` [Example 7, N-(5-(5-(4-(1H-1,2,3-triazol-5-yl)piperidin-1-yl)-1,3,4-oxadiazol-2-yl)pyrimidin-2-yl)-6,7-dihydro-5H-cyclopenta[b]pyrazin-6-amine], 40%; to `CC1CC(c2cnn[nH]2)CCN1c1nnc(-c2cnc(NC3Cc4ccc(Br)cc4C3)nc2)o1` (stereo not drawn) [Example 11, N-(5-bromo-2,3-dihydro-1H-inden-2-yl)-5-(5-(2-methyl-4-(1H-1,2,3-triazol-5-yl)piperidin-1-yl)-1,3,4-oxadiazol-2-yl)pyrimidin-2-amine], 99%.
For `Clc1cc(NC2Cc3ccc(Br)cc3C2)ncc1-c1nnc(N2CCC(c3cnn[nH]3)CC2)o1` (stereo not drawn) [Example 14, 5-(5-(4-(1H-1,2,3-Triazol-5-yl)piperidin-1-yl)-1,3,4-oxadiazol-2-yl)-N-(5-bromo-2,3-dihydro-1H-inden-2-yl)-4-chloropyridin-2-amine], testing at 0.5 µM gave an inhibition of 5%.
Turning to `c1ccc2c(c1)CC(Nc1ncc(-c3cc(N4CCC(c5cnn[nH]5)CC4)no3)cn1)C2` [Example 36, 5-(3-(4-(1H-1,2,3-triazol-5-yl)piperidin-1-yl)isoxazol-5-yl)-N-(2,3-dihydro-1H-inden-2-yl)pyrimidin-2-amine], at 0.5 µM the inhibition was 53.4%.
Consider `Clc1cc(Cl)cc(CCNc2ncc(-c3nnc(N4CCC(c5cnn[nH]5)CC4)o3)cn2)c1` [Example 16, 5-(5-(4-(H-1,2,3-Triazol-5-yl)piperidin-1-yl)-1,3,4-oxadiazol-2-yl)-N-(3,5-dichlorophenethyl)pyrimidin-2-amine], for which the “inhibition (%) at 500 nM” value worked out at 84%.
As for `Fc1cc2c(cc1F)CC(Nc1ncc(C3CC(N4CCC(c5cnn[nH]5)CC4)=NO3)cn1)C2` (stereo not drawn) [Example 37, N-(5,6-difluoroindan-2-yl)-5-[3-[4-(1H-triazol-5-yl)-1-piperidyl]-4,5-dihydroisoxazol-5-yl]pyrimidin-2-amine], the “inhibition (%) at 500 nM” value was 93.2%.
